# From US7432392B2, “Ester derivatives and medical use thereof” (Japan Tobacco Inc., priority 2003, dated 2008)
# Assays:
# [1] = target: T1, Microsomal triglyceride transfer protein (MTP) from bovine liver (Bos taurus, UniProt P55156); assay: Inhibition of interliposomal triglyceride (TG) transfer activity by MTP; assay type: biochemical; conditions: MTP-mediated TG transfer between donor and acceptor liposomes, 37° C., one hour
# T1 construct: the purified MTP was used for the test; from tissue; host or cells: bovine liver
# T1 sequence (P55156 12-887): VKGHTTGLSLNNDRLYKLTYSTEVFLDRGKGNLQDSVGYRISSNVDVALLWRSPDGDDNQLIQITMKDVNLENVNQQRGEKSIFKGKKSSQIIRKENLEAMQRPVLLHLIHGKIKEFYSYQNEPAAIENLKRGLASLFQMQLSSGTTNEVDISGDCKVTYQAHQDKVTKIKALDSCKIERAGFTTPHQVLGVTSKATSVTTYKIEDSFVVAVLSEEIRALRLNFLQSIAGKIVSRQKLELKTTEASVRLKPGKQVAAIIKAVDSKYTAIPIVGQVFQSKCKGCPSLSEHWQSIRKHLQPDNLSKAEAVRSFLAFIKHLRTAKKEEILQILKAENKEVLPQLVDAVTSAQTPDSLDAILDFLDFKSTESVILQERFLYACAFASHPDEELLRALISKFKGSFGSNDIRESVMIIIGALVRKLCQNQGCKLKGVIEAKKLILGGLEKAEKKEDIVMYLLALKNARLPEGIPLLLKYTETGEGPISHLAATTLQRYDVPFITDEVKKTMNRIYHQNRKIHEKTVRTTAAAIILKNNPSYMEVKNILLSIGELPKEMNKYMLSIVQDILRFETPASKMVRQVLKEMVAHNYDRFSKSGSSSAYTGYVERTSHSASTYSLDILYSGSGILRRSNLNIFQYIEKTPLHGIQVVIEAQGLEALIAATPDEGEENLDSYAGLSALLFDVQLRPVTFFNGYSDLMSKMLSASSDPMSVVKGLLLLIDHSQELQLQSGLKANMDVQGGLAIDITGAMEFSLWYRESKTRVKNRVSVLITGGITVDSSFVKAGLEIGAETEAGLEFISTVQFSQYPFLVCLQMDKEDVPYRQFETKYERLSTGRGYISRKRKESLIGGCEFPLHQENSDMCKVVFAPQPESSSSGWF
# T1 sequence (P05307 21-510 partner): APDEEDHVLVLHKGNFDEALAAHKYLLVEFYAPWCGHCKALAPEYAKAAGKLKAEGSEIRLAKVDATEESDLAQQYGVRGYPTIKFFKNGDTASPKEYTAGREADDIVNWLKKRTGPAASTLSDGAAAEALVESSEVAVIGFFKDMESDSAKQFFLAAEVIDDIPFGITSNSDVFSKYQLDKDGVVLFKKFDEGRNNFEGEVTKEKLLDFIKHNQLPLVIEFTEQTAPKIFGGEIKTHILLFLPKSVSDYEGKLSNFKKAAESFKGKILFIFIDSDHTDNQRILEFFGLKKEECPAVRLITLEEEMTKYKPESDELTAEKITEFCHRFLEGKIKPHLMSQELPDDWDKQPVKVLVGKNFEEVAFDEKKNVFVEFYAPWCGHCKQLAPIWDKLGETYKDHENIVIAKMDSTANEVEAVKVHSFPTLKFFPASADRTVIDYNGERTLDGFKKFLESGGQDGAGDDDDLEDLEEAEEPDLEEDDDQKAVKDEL
# How it was run: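 Partially purified bovine liver MTP (DEAE chromatography) was incubated 1 h at 37° C with ^14C-triolein donor SUV liposomes and unlabeled acceptor liposomes in pH 7.4 Tris buffer with 0.5% BSA. Donor was removed with DEAE cellulose and acceptor radioactivity counted. IC50 came from blank-corrected inhibition relative to DMSO.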
# [2] = Metabolic stability test in small intestine S9 (hamster); assay type: in vitro ADME; conditions: Hamster small intestine S9, 2 mg protein/mL, 37° C.
# Method: (§1) Human and hamster liver S9 (final concentration: 2 mg protein/mL), and human and hamster small intestine S9 (final concentration: 2 mg protein/mL) were each suspended in 100 mM potassium phosphate buffer (pH 7.4, containing β-nicotinamide adenine dinucleotide phosphate: 1.3 mM, D-glucose-6-phosphate: 3.3 mM, magnesium chloride: 3.3 mM, and glucose-6-phosphate dehydrogenase: 0.4 U/mL). The suspensions were mixed with a solution of a sample (Example 1) in DMSO. The solutions were incubated at 37° C. for 0, 10 and 60 minutes, and an organic solvent was added thereto. The solutions were centrifuged, and the concentration of the sample (unchanged form) in the supernatant was determined by high performance liquid chromatography/mass spectrometry (LC/MS). Based on the data obtained, remaining rate (%) was calculated according to the following equation. Remaining rate(%)=amount of sample 10 or 60 minutes after incubation/amount of sample at zero time after incubation×100
# [3] = Metabolic stability test in liver S9 (human); assay type: in vitro ADME; conditions: Human liver S9, 2 mg protein/mL, 37° C.
# Method: as §1
smiles,measurement,setting,value
"CCOC(=O)C(COC(=O)Cc1ccc(NC(=O)c2ccccc2-c2ccc(C(F)(F)F)cc2)c(OC(C)=O)c1)(C(=O)OCC)c1ccccc1 [Example 1, 2-(2-{3-acetoxy-4-[(4′-trifluoromethyl-biphenyl-2-carbonyl)amino]phenyl}acetoxymethyl)-2-phenylmalonic acid diethyl ester]",IC50,[1],< 10 nM
same,Remaining rate (%) after 10 minutes,[2]; 10 minutes,4.1%
same,Remaining rate (%) after 60 minutes,[2]; 60 minutes,0.0%
same,Remaining rate (%) after 10 minutes,[3]; 10 minutes,6.2%
same,Remaining rate (%) after 60 minutes,[3]; 60 minutes,1.8%
